Experimental data published in US20090022806A1, “Nanoparticle and polymer formulations for thyroid hormone analogs, antagonists and formulations and uses thereof” (priority 2006, published 2009).
≈ marks a conversion by molar mass, not a printed value. Entries after “also recorded” stand apart in the source; their conditions may differ.

Assays:
[1] = tested on: chick chorioallantoic membrane (CAM); assay: Chick chorioallantoic membrane (CAM) assay of angiogenesis; format: in vivo
Description: Chorioallantoic membrane (CAM) Model of Angiogenesis: In vivo Neovascularization was examined by methods described previously. 9-12 Ten-day-old chick embryos were purchased from SPAFAS (Preston, Conn.) and incubated at 37° C. with 55% relative humidity. A hypodermic needle was used to make a small hole in the shell concealing the air sac, and a second hole was made on the broad side of the egg, directly over an avascular portion of the embryonic membrane that was identified by candling. A false air sac was created beneath the second hole by the application of negative pressure at the first hole, causing the CAM to separate from the shell. A window approximately 1.0 cm 2 was cut in the shell over the dropped CAM with a small-crafts grinding wheel (Dremel, division of Emerson Electric Co.), allowing direct access to the underlying CAM. FGF2 (1 μg/mL) was used as a standard proangiogenic agent to induce new blood vessel branches on the CAM of 10-day-old embryos. Sterile disks of No. 1 filter paper (Whatman International) were pretreated with 3 mg/mL cortisone acetate and 1 mmol/L PTU and air dried under sterile conditions. Thyroid hormone, hormone analogues, FGF2 or control solvents, and inhibitors were then applied to the disks and the disks allowed to dry. The disks were then suspended in PBS and placed on growing CAMs. […] At 24 hours, the MAPK cascade inhibitor PD 98059 was also added to CAMs topically by means of the filter disks.
After incubation at 37° C. with 55% relative humidity for 3 days, the CAM tissue directly beneath each filter disk was resected from control and treated CAM samples. Tissues were washed 3× with PBS, placed in 35-mm Petri dishes (Nalge Nunc), and examined under an SV6 stereomicroscope (Zeiss) at ×50 magnification. Digital images of CAM sections exposed to filters were collected using a 3-charge-coupled device color video camera system (Toshiba) and analyzed with Image-Pro software (Media Cybernetics). The number of vessel branch points contained in a circular region equal to the area of each filter disk were counted. One image was counted in each CAM preparation, and findings from 8 to 10 CAM preparations were analyzed for each treatment condition (thyroid hormone or analogues, FGF2, FGF2 antibody, PD 98059). In addition, each experiment was performed 3 times. The resulting angiogenesis index is the mean±SEM of new branch points in each set of samples.
Ten-day-old chick embryos were purchased £tom SPAFAS (Preston, Conn.) and were incubated at 37° C. with 55% relative humidity. A hypodermic needle was used to make a small hole in the blunt end of the egg and a second hole was made on the broad side of the egg, directly over an avascular portion of the embryonic membrane. Mild suction was applied to the first hole to displace the air sac and drop the CAM away from the shell. Using a Dremel model craft drill (Dremel, Racine, Wis.), a approx. 1.0 cm^2 window was cut in the shell over the false air sac, allowing access to the CAM. Sterile disks of No. 1 filter paper (Whatman, Clifton, N.J.) were pretreated with 3 mg/ml cortisone acetate and 1 mMm propylthiouracil and air dried under sterile conditions. […] The disks were then suspended in PBS and placed on growing CAMS. After incubation for 3 days, the CAM beneath the filter disk was resected and rinsed with PBS. Each membrane was placed in a 35 mm Petri dish and examined under an SV6 stereo-microscope at 50× magnification. Digital images were captured and analyzed with Image-Pro software (Mediacybemetics). The number of vessel branch points contained in a circular region equal to the filter disk were counted. One image from each of 8-10 CAM preparations for each treatment condition was counted, and in addition each experiment was performed 3 times.
Ten-day-old chick embryos were purchased from SPAFAS (Preston, Conn.) and were incubated at 37° C. with 55% relative humidity. Chick CAM assays were performed as previously described.

[2] = tested on: phosphorylated ERK1/2 in ECV304 endothelial cells; assay: MAPK (ERK1/2) activation in ECV304 cells, nuclear pERK1/2 immunoblot; format: cell-based; conditions: PD 98059 30 μmol/L or CGP41251 100 nmol/L for 30 minutes before 10^−7 M T4
Description: ECV304 endothelial cells were cultured in M199 medium with 0.25% hormone-depleted serum 13 for 2 days. […] Nuclear fractions were pre-pared from all samples by our method reported previously, the proteins separated by polyacrylamide gel electrophoresis, and transferred to membranes for immunoblotting with antibody to phosphorylated ERK 1/2.

[3] = tested on: Human dermal micro-vascular endothelial cells (HDMEC); assay: Three-dimensional human micro-vascular endothelial sprouting assay; format: cell-based; conditions: tetrac 0.1 μM; PD 98059; XT199
Description: In Vitro Three-Dimensional Sprout Angiogenesis of Human Dermal Micro-Vascular Endothelial Cells (HDMEC) Cultured on Micro-Carrier Beads Coated with Fibrin: Confluent HDMEC (passages 5-10) were mixed with gelatin-coated Cytodex-3 beads with a ratio of 40 cells per bead. Cells and beads (150-200 beads per well for 24-well plate) were suspended with 5 ml EBM+15% normal human serum, mixed gently every hour for first 4 hours, then left to culture in a CO2 incubator overnight. The next day, 10 ml of fresh EBM+5% HS were added, and the mixture was cultured for another 3 hours. Before experiments, the culture of EC-beads was checked; then 500 ul of PBS was added to a well of 24-well plate, and 100 ul of the EC-bead culture solution was added to the PBS. The number of beads was counted, and the concentration of EC/beads was calculated.
A fibrinogen solution (1 mg/ml) in EBM medium with or without angiogenesis factors or testing factors was prepared. For positive control, 50 ng/ml VEGF+25 ng/ml FGF2 was used. EC-beads were washed with EBM medium twice, and EC-beads were added to fibrinogen solution. The experiment was done in triplicate for each condition. The EC-beads were mixed gently in fibrinogen solution, and 2.5 ul human thrombin (0.05 U/ul) was added in 1 ml fibrinogen solution; 300 ul was immediately transferred to each well of a 24-well plate. The fibrinogen solution polymerizes in 5-10 minutes; after 20 minutes, we added EBM+20% normal human serum+10 ug/ml aprotinin. The plate was incubated in a CO2 incubator. It takes about 24-48 hours for HDMEC to invade fibrin gel and form tubes.
A micro-carrier in vitro angiogenesis assay previously designed to investigate bovine pulmonary artery endothelial cell angiogenic behavior in bovine fibrin gels [Nehls and Drenckhahn, 1995a, b] was modified for the study of human microvascular endothelial cell angiogenesis in three-dimensional ECM environments (FIGS. 1 and 2). Briefly, human fibrinogen, isolated as previously described [Feng et al, 1999], was dissolved in M199 medium at a concentration of 1 mg/ml (pH 7.4) and sterilized by filtering through a 0.22 micron filter. An isotonic 1.5 mg/ml collagen solution was prepared by mixing sterile Vitrogen 100 in 5×M199 medium and distilled water. The pH was adjusted to 7.4 by 1N NaOH. In certain experiments, growth factors and ECM proteins (such as VEGF, bFGF, PDGF-BB, serum, gelatin, and fibronectin) were added to the fibrinogen or collagen solutions. About 500 EC-beads were then added to the 1 mg/ml fibrinogen or 1.5 mg/ml collagen solutions. Subsequently, EC-beads-collagen or EC-beads-fibrinogen suspension (500 EC-beads/ml) was plated onto 24-well plates at 300 ul/well. EC-bead-collagen cultures were incubated at 37° C. to form gel. The gelling of EC-bead-fibrin cultures occurred in less than 5 minutes at room temperature after the addition of thrombin to a final concentration of 0.5 U/ml. After gelation, 1 ml of fresh assay medium (EBM supplemented with 20% normal human serum for HDMEC or EBM supplemented with 10% fetal bovine serum was added to each well. The angiogenic response was monitored visually and recorded by video image capture. Specifically, capillary sprout formation was observed and recorded with a Nikon Diaphot-TMD inverted microscope (Nikon Inc.; Melville, N.Y.), equipped with an incubator housing with a Nikon NP-2 thermostat and Sheldon #2004 carbon dioxide flow mixer. The microscope was directly interfaced to a video system consisting of a Dage-MTI CCD-72S video camera and Sony 12″ PVM-122 video monitor linked to a Macintosh G3 computer. The images were captured at various magnifications using Adobe Photoshop. The effect of angiogenic factors on sprout angiogenesis was quantified visually by determining the number and percent of EC-beads with capillary sprouts. One hundred beads (five to six random low power fields) in each of triplicate wells were counted for each experimental condition. All experiments were repeated at least three times. […]

[4] = Solubility; format: physicochemical; conditions: in water after preparing a solution at 10^−1 M in DMSO
Description: Yield: 50%; off-white solid; recrist. solvt.: EtOH; TLC: Rf=0.43 (EtOAc/EtOH 9/1); RPTLC: Rf=0.43 (AcOH/H2O 8/2); mp=136° C.; IR (ν cm^−1): 1730 (CO); ^1H NMR (DMSO-d6) δ (ppm): 7.79 (s, 2H, ArH), 7.14 (s, 2H, ArH), 4.06-4.02 (m, 2H, CH2), 3.93-3.89 (q, J=7.0 Hz, 2H, CH2), 3.59-3.56 (t, J=7.0 Hz, 1H, CH), 2.80-2.77 (m, 2H, CH2), 1.88 (br, 1H, NH), 1.41-1.39 (t, J=7.0 Hz, 3H, CH3), 1.15-1.12 (t, J=7.0 Hz, 3H, CH3); MS (ESI+) m/z 911.7 [(M+DMSO)^+, 100], 833.7 [(M+H)+, 75]; Anal. Calcd. for C19H19I4NO4: C, 27.40; H, 2.30; N, 1.68. Found: C, 27.54; H, 1.94; N, 1.66. Solubility 10^−3 M in water after preparing a solution at 10^−1 M in DMSO. It is noteworthy that if a suspension of L-T4 is prepared overnight, the yield can be increased.

[5] = Doxorubicin-resistant tumor xenograft in nude mice; conditions: CD1 nude, mouse, in vivo
Description: (§1) Strain CD1 nude mice were obtained from Charles River Laboratories (Wilmington, Mass.) at approximately 5-6 weeks of age and weighing approximately 30 g. Animals received s.c. implantation of doxorubicin-resistant MCF7/R cells (10^6 cells in 100 μl). When tumors were approximately 50 mm^3 in size, the animals were pair matched and divided into four groups of five mice as follows: a) vehicle treated controls, b) mice treated with tetrac (30 mg/kg), c) mice treated doxorubicin (2 mg/kg), d) mice treated with the combination of both drugs. A total of three injections (separated by 3 days) were performed. Mice were weighed, checked for clinical signs of drug toxicity and lethality. Tumor measurements were made with a caliper three times weekly for up to 3 weeks and converted to tumor volume by using the formula W×L^2/2. Tumor growth curves were generated.

[6] = tested on: doxorubicin-resistant MCF7/R cells; assay: Doxorubicin-resistant tumor xenograft in nude mice; conditions: doxorubicin alone 2 mg/kg, three injections
Description: as §1

[7] = tested on: NG108-15 cells; assay: cells; conditions: Homo sapiens, NG108-15, read-out: Half maximal inhibition of cell-cell adhesion
[8] = tested on: EC migration toward the extracellular matrix protein vitronectin; assay: Cellular migration assay toward vitronectin (chemotaxis chamber); format: cell-based; conditions: Vitronectin 25 ug in lower chamber alone
Description: These assays were performed using a Neuroprobe 96 well disposable chemotaxis chamber with an 8 μm pore size. This chamber allowed for quantitation of cellular migration towards a gradient of either vitronectin or osteopontin. Cultured cells were removed following a standardized method using EDTA/Trypsin (0.01%/0.025%). Following removal, the cells were washed twice and resuspended (2×10^6/ml) in EBM (Endothelial cell basal media, Clonetics Inc.). Add either vitronectin or osteopontin (33 μl) at 0.0125-100 μg/ml to the lower wells of a disposable chemotaxis chamber, and then assemble using the preframed filter. The cell suspension (45 μl) was added to a polypropylene plate containing 5 μl of test agent at different concentrations and incubated for 10 minutes at 22° C. Add 25 μl of cell/test agent suspension to the upper filter wells then incubate overnight (22 hours at 37° C.) in a humidified cell culture incubator. After the overnight incubation, non-migrated cells and excess media were gently removed using a 12 channel pipette and a cell scraper. The filters were then washed twice in PBS (no Ca^+2 or Mg^+2) and fixed with 1% formaldehyde. Membranes of migrated cells were permeated with Triton X-100 (0.2%) then washed 2-3 times with PBS. […] Chemotaxis was quantitatively determined by fluorescence detection using a Cytofluor II (530 excitation/590 emission).

COc1cccc(-c2cc(=O)c3ccccc3o2)c1N [PD 98059]
inhibition of angiogenesis induced by FGF2 (1 μg/mL) ([1]; PD 98059): effectively blocked; also recorded: also inhibited
inhibition of angiogenesis stimulated by T4 (0.1 μmol/L) and T3 (1 nmol/L) together ([1]; PD 98059 3 μmol/L): completely blocked; also recorded: fully inhibited
block of the pro-angiogenesis effect of T4 or FGF2 ([1]; PD 98059 at 0.8-8 μg): totally blocked
inhibition of T4-induced ERK1/2 activation [2]: inhibited; also recorded: blocked by both inhibitors
inhibition of the pro-angiogenesis action of T3, T4 or T4-agarose [3]: significantly (P<0.01) blocked

CC(C)(C)OC(=O)NC(Cc1cc(I)c(Oc2cc(I)c(O)c(I)c2)c(I)c1)C(=O)O (centres unmarked) [PRIAB1, 2-[(tert-butoxycarbonyl)amino]-3-[4-(4-hydroxy-3,5-diiodophenoxy)-3,5-diiodophenyl]propanoic acid]
melting point: 212 °C

CCNC(Cc1cc(I)c(Oc2cc(I)c(O)c(I)c2)c(I)c1)C(=O)OCC (centres unmarked) [PRIAB20, ethyl-2-(ethylamino)-3-[4-(4-hydroxy-3,5-diiodophenoxy)-3,5-diiodophenyl]propanoate]
solubility [4]: 1000 µM (≈ 833 µg/mL)

COc1cccc2c1C(=O)c1c(O)c3c(c(O)c1C2=O)C[C@@](O)(C(=O)CO)C[C@@H]3O[C@H]1C[C@H](N)[C@H](O)[C@H](C)O1 [doxorubicin]
MTD [5]: 2.5 mg/kg
effect on tumor growth [6]: no noticeable effect

CCO [ethanol]
IC50 [7]: 5 to 10 mM

B1: Vitronectin: extracellular matrix protein used as migration gradient (protein, UniProt P04004 20-478, looked up)
Vitronectin: DQESCKGRCTEGFNVDKKCQCDELCSYYQSCCTDYTAECKPQVTRGDVFTMPEDEYTVYDDGEEKNNATVHEQVGGPSLTSDLQAQSKGNPEQTPVLKPEEEAPAPEVGASKPEGIDSRPETLHPGRPQPPAEEELCSGKPFDAFTDLKNGSLFAFRGQYCYELDEKAVRPGYPKLIRDVWGIEGPIDAAFTRINCQGKTYLFKGSQYWRFEDGVLDPDYPRNISDGFDGIPDNVDAALALPAHSYSGRERVYFFKGKQYWEYQFQHQPSQEECEGSSLSAVFEHFAMMQRDSWEDIFELLFWGRTSAGTRQPQFISRDWHGVPGQVDAAMAGRIYISGMAPRPSLAKKQRFRHRNRKGYRSQRGHSRGRNQNSRRPSRATWLSLFSSEESNLGANNYDDYRMDWLVPATCEPIQSVFFFSGDKYYRVNLRTRRVDTVDPPYPRSIAQYWLGCPAPGHL
Mean EC Migration (Fluorescence Units) + SD [8]: 6,116 ± 185 Fluorescence Units
